Data published in ChEMBL document CHEMBL1201862, “PubChem BioAssay data set” (2004).
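Five compound concentrations were applied to cells in 96-well plates for 48 hours; endpoints were derived by simple linear interpolation of the resulting dose-response curve. GI50: concentration for 50% inhibition of growth.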 Active and inactive are the calls of the source. No stated cut-off is given here; in the data, active = GI50 up to about 1.1 µM and inactive = higher.

What was measured:
Assay in all cases: growth of human tumour cells (NCI), 48 h
EKVX = test system: EKVX
HOP-62 = test system: HOP-62
HT-29 = test system: HT-29
Hs-578T = test system: Hs-578T
M14 = test system: M14
MCF7 = test system: MCF7
MDA-MB-231 = test system: MDA-MB-231
NCI-H23 = test system: NCI-H23
OVCAR-3 = test system: OVCAR-3
RXF 393 = test system: RXF 393
SF-268 = test system: SF-268
SF-295 = test system: SF-295
SW-620 = test system: SW-620
TK-10 = test system: TK-10
UACC-257 = test system: UACC-257
A498 = test system: A498
CAKI-1 = test system: CAKI-1
KM12 = test system: KM12
CCRF-CEM = test system: CCRF-CEM
HCC 2998 = test system: HCC 2998

SMILES | GI50 (EKVX) | GI50 (HOP-62) | GI50 (HT-29) | GI50 (Hs-578T) | GI50 (M14) | GI50 (MCF7) | GI50 (MDA-MB-231) | GI50 (NCI-H23) | GI50 (OVCAR-3) | GI50 (RXF 393) | GI50 (SF-268) | GI50 (SF-295) | GI50 (SW-620) | GI50 (TK-10) | GI50 (UACC-257) | GI50 (A498) | GI50 (CAKI-1) | GI50 (KM12) | GI50 (CCRF-CEM) | GI50 (HCC 2998)
Cc1ccc(S(=O)(=O)OC2CCN(C)CC2)cc1 | > 100 µM (inactive) | > 100 µM (inactive) | > 100 µM (inactive) | > 100 µM (inactive) | > 100 µM (inactive) | 47.9 µM (inactive) | > 100 µM (inactive) | 33.7 µM (inactive) | > 100 µM (inactive) | > 100 µM (inactive) | > 100 µM (inactive) | > 100 µM (inactive) | 20.1 µM (inactive) | > 100 µM (inactive) | 24.2 µM (inactive) |  |  |  |  | 
O=C(O)Cc1c(O)ccc2ccccc12 | > 100 µM (inactive) | > 100 µM (inactive) | > 100 µM (inactive) | > 100 µM (inactive) | > 100 µM (inactive) | > 100 µM (inactive) | > 100 µM (inactive) | > 100 µM (inactive) | > 100 µM (inactive) | > 100 µM (inactive) | > 100 µM (inactive) | > 100 µM (inactive) | > 100 µM (inactive) | > 100 µM (inactive) | > 100 µM (inactive) | > 100 µM (inactive) | > 100 µM (inactive) | > 100 µM (inactive) |  | 
C[N+]1(CCN=C=NC2CCCCC2)CCOCC1 | > 100 µM (inactive) | > 100 µM (inactive) | > 100 µM (inactive) | > 100 µM (inactive) | > 100 µM (inactive) | > 100 µM (inactive) | > 100 µM (inactive) | > 100 µM (inactive) | > 100 µM (inactive) | > 100 µM (inactive) | > 100 µM (inactive) | > 100 µM (inactive) | > 100 µM (inactive) | > 100 µM (inactive) | > 100 µM (inactive) | > 100 µM (inactive) | > 100 µM (inactive) | > 100 µM (inactive) | > 100 µM (inactive) | 
Cc1ccn2c(=O)cc(-c3ccccc3)nc2c1 | 44.7 µM (inactive) | > 100 µM (inactive) | > 100 µM (inactive) | > 100 µM (inactive) | > 100 µM (inactive) | > 100 µM (inactive) | > 100 µM (inactive) | > 100 µM (inactive) | > 100 µM (inactive) | > 100 µM (inactive) | > 100 µM (inactive) | > 100 µM (inactive) | > 100 µM (inactive) | > 100 µM (inactive) | > 100 µM (inactive) |  |  | 68.9 µM (inactive) | > 100 µM (inactive) | > 100 µM (inactive)
COC(=O)C(=O)c1c2ccccc2n2ccc3c4ccccc4[nH]c3c12 | 0.406 µM (active) | > 10 µM (inactive) | > 10 µM (inactive) | 3.07 µM (inactive) | > 10 µM (inactive) | > 10 µM (inactive) | 9.18 µM (inactive) | > 10 µM (inactive) | > 10 µM (inactive) | > 10 µM (inactive) | > 10 µM (inactive) | > 10 µM (inactive) | > 10 µM (inactive) | > 10 µM (inactive) | > 10 µM (inactive) |  | > 10 µM (inactive) | > 10 µM (inactive) | > 10 µM (inactive) | > 10 µM (inactive)
CC1(F)C=CC(=O)C=C1 | > 100 µM (inactive) | > 100 µM (inactive) | 46.5 µM (inactive) | > 100 µM (inactive) | > 100 µM (inactive) | 31.8 µM (inactive) | 40.1 µM (inactive) | > 100 µM (inactive) | > 100 µM (inactive) |  | > 100 µM (inactive) | > 100 µM (inactive) | 22.2 µM (inactive) | 38.9 µM (inactive) | 71.8 µM (inactive) | > 100 µM (inactive) | 55.7 µM (inactive) | > 100 µM (inactive) | 47.5 µM (inactive) | > 100 µM (inactive)
CO[C@H](C)[C@](O)(C(=O)OCC1=CCN2CC[C@@H](O)[C@H]12)C(C)C | > 100 µM (inactive) | > 100 µM (inactive) | > 100 µM (inactive) | > 100 µM (inactive) | > 100 µM (inactive) | > 100 µM (inactive) | > 100 µM (inactive) | > 100 µM (inactive) | > 100 µM (inactive) |  | > 100 µM (inactive) | > 100 µM (inactive) | > 100 µM (inactive) | > 100 µM (inactive) | > 100 µM (inactive) | > 100 µM (inactive) | > 100 µM (inactive) | > 100 µM (inactive) | > 100 µM (inactive) | > 100 µM (inactive)
C=CC1ON(C)CCc2cc(OC)c(OC)cc21 (configuration not stated) | > 100 µM (inactive) | > 100 µM (inactive) | > 100 µM (inactive) | > 100 µM (inactive) | > 100 µM (inactive) | 1.63 µM (inactive) | > 100 µM (inactive) | > 100 µM (inactive) | > 100 µM (inactive) |  | 39.6 µM (inactive) | > 100 µM (inactive) | > 100 µM (inactive) | > 100 µM (inactive) | > 100 µM (inactive) | > 100 µM (inactive) | > 100 µM (inactive) | > 100 µM (inactive) | > 100 µM (inactive) | > 100 µM (inactive)
O=C(O)C1(Cc2ccccc2)Cc2cc3c(cc2C1)CCC3 | 54.2 µM (inactive) | 99.3 µM (inactive) | > 100 µM (inactive) | 75.2 µM (inactive) | 44.1 µM (inactive) | > 100 µM (inactive) | > 100 µM (inactive) | > 100 µM (inactive) | > 100 µM (inactive) | > 100 µM (inactive) | 78.9 µM (inactive) | > 100 µM (inactive) | > 100 µM (inactive) | > 100 µM (inactive) | > 100 µM (inactive) |  |  | 68.4 µM (inactive) | 45.1 µM (inactive) | 58.2 µM (inactive)
O=c1oc2ccccc2n1CCCn1c(=O)oc2ccccc21 | > 100 µM (inactive) | > 100 µM (inactive) | > 100 µM (inactive) | > 100 µM (inactive) | > 100 µM (inactive) | > 100 µM (inactive) | > 100 µM (inactive) | > 100 µM (inactive) | > 100 µM (inactive) | 82.8 µM (inactive) | > 100 µM (inactive) | > 100 µM (inactive) | > 100 µM (inactive) | > 100 µM (inactive) | > 100 µM (inactive) | > 100 µM (inactive) | > 100 µM (inactive) | > 100 µM (inactive) | > 100 µM (inactive) | 
Cc1cc(C)c2c(=O)n(CC(O)CN3CCN(CCOCCO)CC3)sc2n1 (configuration not stated) | 18.7 µM (inactive) | 28.4 µM (inactive) | 19.1 µM (inactive) | 28.5 µM (inactive) | 17.8 µM (inactive) | 18.3 µM (inactive) | 19.1 µM (inactive) | 15.3 µM (inactive) | 22.4 µM (inactive) | 4.68 µM (inactive) | 20.8 µM (inactive) | > 100 µM (inactive) | 25.6 µM (inactive) | 17.5 µM (inactive) | 12.2 µM (inactive) | 21.9 µM (inactive) | > 100 µM (inactive) | 22 µM (inactive) | 11.4 µM (inactive) | 
O=C(O)/C=C/c1ccc2c(c1)CC1(Cc3ccccc3C1)C2 | > 100 µM (inactive) | 49.5 µM (inactive) | 39.8 µM (inactive) | > 100 µM (inactive) | 48.1 µM (inactive) | 43.6 µM (inactive) | > 100 µM (inactive) | 57 µM (inactive) | 27.7 µM (inactive) | 94 µM (inactive) |  | 36.1 µM (inactive) |  | > 100 µM (inactive) | > 100 µM (inactive) | 75.3 µM (inactive) |  | 55.8 µM (inactive) | 91.2 µM (inactive) | 93.8 µM (inactive)
O=c1[nH]c2nc3ccccc3c(=O)n2/c1=C/c1ccccc1 | 35.3 µM (inactive) | > 100 µM (inactive) | 17.5 µM (inactive) | 29 µM (inactive) | 47.9 µM (inactive) | 44.2 µM (inactive) | > 100 µM (inactive) | 30.3 µM (inactive) | 22 µM (inactive) | 55 µM (inactive) | 20.6 µM (inactive) | > 100 µM (inactive) | 17.7 µM (inactive) | 53.8 µM (inactive) | 23.7 µM (inactive) |  | 47.4 µM (inactive) | 38.5 µM (inactive) | 40.3 µM (inactive) | 31 µM (inactive)
COC(=O)C(Cc1ccccc1)NC(=O)CSc1nnc(COc2ccc(Cl)cc2)n1-c1ccccc1 (configuration not stated) |  | 15 µM (inactive) | 23.4 µM (inactive) | 26.7 µM (inactive) | 20.2 µM (inactive) | 23.4 µM (inactive) | 18.6 µM (inactive) | 22.3 µM (inactive) |  | 19.1 µM (inactive) | 25.7 µM (inactive) |  | 35.9 µM (inactive) | 19.4 µM (inactive) | 13.1 µM (inactive) | 17 µM (inactive) |  | 37.7 µM (inactive) | 16.8 µM (inactive) | 5.61 µM (inactive)
C=C(C)C(O)CCC1(C)C=Cc2c(c(C)cc3c2[nH]c2ccccc23)O1 (configuration not stated) |  | 4.75 µM (inactive) | 4.72 µM (inactive) | 3.17 µM (inactive) | 5.05 µM (inactive) | 12.3 µM (inactive) | 3.49 µM (inactive) | 10.7 µM (inactive) | 7.52 µM (inactive) | 0.245 µM (active) | 9.93 µM (inactive) | 4.34 µM (inactive) | 4.48 µM (inactive) | > 25 µM (inactive) | 8.17 µM (inactive) | 13.6 µM (inactive) |  | 5.85 µM (inactive) | 7.74 µM (inactive) | 5.65 µM (inactive)
